Laboratory results published in PubChem BioAssay (NCI).
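Five compound concentrations were applied to cells in 96-well plates for 48 hours; endpoints were derived by simple linear interpolation of the resulting dose-response curve. At the GI50, growth is halved. TGI: total growth inhibition.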

Experiments:
Test in all cases: inhibition of tumour cell growth, NCI panel, 48 h
[1] = test system: 786-0 renal
[2] = test system: A549 NSCLC
[3] = test system: ACHN renal
[4] = test system: BT-549 breast
[5] = test system: CCRF-CEM leukemia
[6] = test system: HOP-62 NSCLC
[7] = test system: IGROV1 ovarian
[8] = test system: MDA-MB-435
[9] = test system: SF-295 CNS
[10] = test system: SK-OV-3 ovarian

Structure (SMILES)	GI50 [1] [µM]	TGI [1] [µM]	GI50 [2] [µM]	TGI [2] [µM]	GI50 [3] [µM]	TGI [3] [µM]	GI50 [4] [µM]	TGI [4] [µM]	GI50 [5] [µM]	TGI [5] [µM]	GI50 [6] [µM]	TGI [6] [µM]	GI50 [7] [µM]	TGI [7] [µM]	GI50 [8] [µM]	TGI [8] [µM]	GI50 [9] [µM]	TGI [9] [µM]	GI50 [10] [µM]	TGI [10] [µM]
COc1ccc(-c2c(C#N)c(N)nc(N3CCOCC3)c2C#N)cc1	20.7	76.6	29.4	> 100	20.2	> 100	20.9	> 100	17.9	> 100	14.8	70.4	3.08	21	28.5	> 100	15	50.1	4.99	27.3
CC(=O)NC1(NC(C)=O)C2CC(C1Cc1ccccc1)C(C)(C)C2C (stereo not given)	–	> 100	–	> 100	–	> 100	–	> 100	–	> 100	–	> 100	–	> 100	–	> 100	–	> 100	–	> 100
Cn1c(=O)n(C)c2cc(CNCCNc3ccnc4cc(Cl)ccc34)ccc21	23.1	71.8	50.3	> 100	25.4	93.4	> 100	> 100	30.7	> 100	39.4	> 100	37.4	> 100	15.8	31.9	15.3	40.1	72.7	> 100
C/C(=C(/c1ccccc1)c1ccc(OCC(O)CNCCN2CCOCC2)cc1)c1ccccc1 (stereo not given)	1.74	3.32	3.99	15.6	3.31	11.7	10.1	22.2	3.48	11.3	2.29	5.69	3.97	15	1.67	3.09	1.92	3.63	11.1	24.8
CC(C)(C)NCC(O)COc1c(Br)c(Br)c(Br)c2c1OC(C)(C)C2 (stereo not given)	1.58	3.21	2.06	3.84	1.9	3.35	1.69	3.11	1.97	3.76	1.89	3.7	1.77	3.36	2.02	3.96	2.26	3.95	1.83	3.3
CC(C)(C)[Si](C)(C)OC1[C@@H](CNC(N)=O)O[C@@H](n2cnc3c(NC(=O)Nc4ccccc4)ncnc32)[C@H]1O[Si](C)(C)C(C)(C)C (stereo not given in full)	2.22	8.17	1.98	7.82	2.42	8.62	2.47	9.2	1.06	2.48	6.38	12.9	2.12	7.36	2.21	8.51	2.04	7.9	3.29	9.53
CC(=O)c1ccc2c(c1)N(CCCN1CCN(CCO)CC1)c1ccccc1S2	1.77	3.64	3.3	11.5	2.98	11.4	3.38	11.9	1.68	5.53	1.99	4.77	2.16	6.12	1.72	3.52	2.15	4.26	2.84	10.1
COc1cc([C@@H]2c3cc4c(cc3[C@H](OC(C)=O)[C@H]3COC(=O)[C@@H]23)OCO4)cc(OC)c1OC	0.379	> 100	0.463	> 100	0.766	> 100	0.419	> 68.5	0.338	> 100	0.4	> 100	0.401	> 62.5	0.0787	0.469	0.296	> 100	0.334	> 100
O=C(c1ccc2ccccc2c1)c1nc2cc(F)ccc2[n+]([O-])c1C(F)(F)F	31.6	> 100	20.6	53.7	22.5	60	17.5	33	22.5	66.3	34.4	> 100	8.36	21.6	15.2	28.6	18.3	37.9	19.4	34.1
c1ccc(-c2nc3n(c2-c2ccc4c(c2)OCO4)CCC3)nc1	3.89	24.9	5.88	> 25	0.993	> 25	10	> 25	7.63	> 25	4.93	> 17.6	7.37	> 23.2	8.8	> 25	4.8	24.5	4.54	14.7
CN(Cc1ccc(F)cc1)c1ccc(CO)c(Cl)c1	10.5	30.4	5.54	> 60.1	28.9	> 100	12.3	39.9	28.9	> 100	5.13	> 87.6	0.476	3.47	44.7	> 100	3.38	> 62.3	12.2	70.9
C=C1C(=O)O[C@H]2[C@H]1CC/C(COC(=O)N[C@H]1C[C@H](O[C@H]3C[C@](O)(C(=O)CO)Cc4c(O)c5c(c(O)c43)C(=O)c3c(OC)cccc3C5=O)O[C@@H](C)[C@H]1O)=C\CC[C@@]1(C)O[C@@H]21	5.7	16.5	> 50	> 50	41.3	> 50	2.4	9.24	0.672	2.28	22.7	> 50	5.77	19	6.31	22.2	45.3	> 50	> 50	> 50
O=C1c2cccnc2-c2nc(-c3cccnc3)cc3c2c1nc1ccccc13	2.74	8.85	3.97	15.6	1.55	2.88	4.53	9.5	5.23	> 100	1.73	3.22	3.12	28.4	5.58	32	1.92	3.71	15.3	29.8
COc1cc(OCc2cccc(-c3ccccc3)c2C)cc(OC)c1CN1CCCCC1C(=O)NCCOCCOCCN (stereo not given)	1.83	3.53	3.04	10.7	3.43	13	11.5	24.7	2.68	8.9	2.3	6.06	3.06	12.1	1.79	3.32	2.03	4.23	10.7	24
CCN1[C@@H](C(=O)NC23CCC(C(=O)O)(CC2)CC3)[C@H](c2cccc(Cl)c2F)[C@]2(C(=O)Nc3cc(Cl)ccc32)C12CCCCC2	2.94	12.1	0.177	7.03	0.0878	3.77	2.28	5.54	2.98	13.2	3.19	13.6	0.99	15.5	2.92	10.7	2.21	7.29	3.03	12
O=C(CC1(O)C(=O)Nc2ccc(F)cc21)c1ccc(C(=O)NCC2CCC3(CC2)OOC2(CCCCC2)OO3)cc1 (stereo not given)	2	3.81	2.49	5.81	2.89	10.7	12.6	34.6	1.81	4.3	3.64	12.3	1.64	6.63	3.04	10.8	3.69	16.2	14.1	31.9
CCSc1ccc([C@@H]2[C@@H](O)C(=O)N2c2cc(OC)c(OC)c(OC)c2)cc1	< 0.016	29	< 0.0159	80.6	0.0141	43.7	0.0264	0.503	< 0.0171	> 100	< 0.0125	32.5	0.0235	66.2	< 0.01	< 0.0112	< 0.01	17.5	0.0271	38.1
N=c1ccc2nc3ccc(N)cc3sc-2c1	9.99	29.7	3.43	> 100	8.55	23.2	10.6	60.9	3.55	35.3	5.06	49.4	6.77	75	2.37	5.21	4.28	59.1	15.6	63.5
